Here are results for 70 compounds from patent publication US8153631B2, “Triazole compounds and uses related thereto” (Amgen Inc., priority 2003, dated 2012).

The target of this experiment is T1, human HSD1 (recombinant HSD1) (Homo sapiens, UniProt P28845).
T1 construct: made in house
T1 sequence (P28845 whole entry): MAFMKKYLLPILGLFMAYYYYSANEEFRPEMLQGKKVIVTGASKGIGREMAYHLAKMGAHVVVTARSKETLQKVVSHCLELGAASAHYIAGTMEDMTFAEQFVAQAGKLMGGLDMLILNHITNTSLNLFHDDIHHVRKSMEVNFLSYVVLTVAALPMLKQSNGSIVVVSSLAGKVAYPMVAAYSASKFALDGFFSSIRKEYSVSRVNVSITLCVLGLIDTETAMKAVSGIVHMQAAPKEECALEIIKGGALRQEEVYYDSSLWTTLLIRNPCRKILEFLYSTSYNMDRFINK
Briefly: In vitro HSD1 activity inhibitory action, SPA of cortisone to cortisol conversion. The conditions noted are these: recombinant human HSD1 0.1 μg/ml, 500 μM NADPH, 16 nM 3H cortisone, room temperature 90 min, read-out: hHSD1 IC50. In kind it is biochemical. The method, then: In Vitro HSD1 (Hydroxysteroid Dehydrogenase 1) Activity Inhibitory Action
The HSD1 inhibitory activity was examined by quantitative determination by an SPA (scintillation proximity assay) system of the suppressive action on the conversion from cortisone to cortisol using human HSD1 (hereinafter recombinant HSD1) expressed using a baculo-virus system as an enzyme source. For the reaction, a reagent was added to a 96 well plate (96 well Opti-plates™-96 (Packard)) to the following final concentration and a volume of 100 μl was reacted at room temperature for 90 min. The reaction solution used was 0.1 μg/ml recombinant HSD1, 500 μM NADPH, 16 nM ^3H cortisone (Amersham Biosciences, 1.78 Tbq/mol) dissolved in 0.1% BSA (Sigma)-containing PBS and the test drug was 2 μl of a compound solution (dissolved in DMSO). After 90 min, the reaction was stopped by adding PBS (40 μl, containing 0.1% BSA (Sigma)) containing 0.08 μg of anti-cortisol mouse monoclonal antibody (East Coast Biologics), 365 μg SPA PVT mouse antibody-binding beads (Amersham Biosciences) and 175 μM carbenoxolone (Sigma) to the reaction solution. After the completion of the reaction, the plate was incubated overnight at room temperature and the radioactivity was measured by Topcount (Packard). For control, the value (0% inhibition) of the well containing 2 μl of DMSO instead of the test drug was used, and for positive control, the value (100% inhibition) of the well containing carbenoxolone instead of the test drug at the final concentration of 50 μM was used. The inhibition (%) of the test drug was calculated by ((value of control−value of test drug)/(value of control−value of positive control))×100 (%). The IC50 value was analyzed using a computer-based curve fitting soft.
For `CNC(=O)c1ccc(-c2nnc(C3(c4ccccc4)CC3)n2C)c(Cl)c1` [Ex. 1-75], the IC50 (in general, the concentration that gives 50% inhibition) is below 10 nM.
In the case of `COc1ccc(-c2nnc(C3(c4ccccc4)CC3)n2C)c(Cl)c1` [Ex. 1-76] it was below 10 nM; in that of `CN(C)C(=O)c1ccc(-c2nnc(C3(c4ccccc4)CC3)n2C)c(Cl)c1` [Ex. 1-77], 10 to 1000 nM.
In the case of `Cn1c(-c2ccc(C(=O)NCCO)cc2Cl)nnc1C1(c2ccccc2)CC1` [Ex. 1-78] it was 10 to 1000 nM.
Take `CC(C)NC(=O)c1ccc(-c2nnc(C3(c4ccccc4)CC3)n2C)c(Cl)c1` [Ex. 1-79]: the IC50 is 10 to 1000 nM.
To `Cn1c(-c2ccc(C(=O)N3CCCCC3)cc2Cl)nnc1C1(c2ccccc2)CC1` [Ex. 1-80] belongs 10 to 1000 nM; to `Cn1c(-c2ccc(C(=O)N3CCC(O)CC3)cc2Cl)nnc1C1(c2ccccc2)CC1` [Ex. 1-81], 10 to 1000 nM; to `Cn1c(-c2ccc(C(=O)NCC(N)=O)cc2Cl)nnc1C1(c2ccccc2)CC1` [Ex. 1-82], below 10 nM.
As to `Cn1c(-c2ccc(C(=O)NCC(F)(F)F)cc2Cl)nnc1C1(c2ccccc2)CC1` [Ex. 1-83], the IC50 fell in the range of 10 to 1000 nM.
To `CC(=O)NCCNC(=O)c1ccc(-c2nnc(C3(c4ccccc4)CC3)n2C)c(Cl)c1` [Ex. 1-84] belongs 10 to 1000 nM; to `COCCNC(=O)c1ccc(-c2nnc(C3(c4ccccc4)CC3)n2C)c(Cl)c1` [Ex. 1-85], 10 to 1000 nM.
In the case of `CN(C)CCNC(=O)c1ccc(-c2nnc(C3(c4ccccc4)CC3)n2C)c(Cl)c1` [Ex. 1-87] it was 10 to 1000 nM.
For the compound `Cn1c(-c2ccc(C(=O)NCCN3CCOCC3)cc2Cl)nnc1C1(c2ccccc2)CC1` [Ex. 1-88], the IC50 is 10 to 1000 nM.
In the case of `CN(C)c1ccc(-c2nnc(C3(c4ccccc4)CC3)n2C)c(Cl)c1` [Ex. 1-89] it was below 10 nM; in that of `Cn1c(-c2ccc(N3CCOCC3)cc2Cl)nnc1C1(c2ccccc2)CC1` [Ex. 1-90], below 10 nM.
In the case of `COc1cc(Cl)ccc1-c1nnc(C2(c3ccccc3)CC2)n1C` [Ex. 1-91] it was below 10 nM.
To `Cn1c(-c2ccc(F)cc2Cl)nnc1C1(c2ccccc2)CC1` [Ex. 1-92] belongs below 10 nM.
On to `Cn1c(-c2ccc(Cl)cc2[N+](=O)[O-])nnc1C1(c2ccccc2)CC1` [Ex. 1-93], for which the IC50 was below 10 nM.
With `Cn1c(-c2ccc(Cl)cc2N)nnc1C1(c2ccccc2)CC1` [Ex. 1-94], the IC50 lay in the range of 10 to 1000 nM.
To `Cn1c(-c2ccc(Cl)cc2F)nnc1C1(c2ccccc2)CC1` [Ex. 1-95] belongs below 10 nM; to `Cn1c(-c2ccncc2Cl)nnc1C1(c2ccccc2)CC1` [Ex. 1-96], below 10 nM.
In the case of `Cn1c(-c2ccc(Cl)nc2Cl)nnc1C1(c2ccccc2)CC1` [Ex. 1-97] it was 10 to 1000 nM; in that of `Cn1c(-c2ccccn2)nnc1C1(c2ccccc2)CC1` [Ex. 1-98], 10 to 1000 nM; in that of `Cn1c(C2CCN(Cc3c(Cl)cccc3Cl)CC2)nnc1C1(c2ccccc2)CC1` [Ex. 1-99], 10 to 1000 nM.
In the case of `Cn1c(-c2ccc(Br)cc2Cl)nnc1C1(c2ccccc2)CC1` [Ex. 1-100] it was below 10 nM; in that of `Cn1c(-c2ccccc2Cl)nnc1C1(c2ccccc2)CC1` [Ex. 1-101], below 10 nM.
Turning to `Cn1c(-c2ccc(C(C)(O)C(F)(F)F)cc2Cl)nnc1C1(c2ccccc2)CC1` (stereo not shown) [Ex. 1-102], the IC50 was below 10 nM.
To `Cn1c(C2CCCCC2)nnc1C1(c2ccccc2)CC1` [Ex. 1-103] belongs below 10 nM.
Turning to `COC(=O)[C@H]1CC[C@H](c2nnc(C3(c4ccccc4)CC3)n2C)CC1` [Ex. 1-104], the IC50 fell in the range of 10 to 1000 nM.
In the case of `Cn1c(C2(c3ccccc3)CC2)nnc1[C@H]1CC[C@H](CO)CC1` [Ex. 1-105] it was below 10 nM.
For the compound `CC(C)n1c(-c2ccc(Cl)cc2)nnc1C1(c2ccc(F)cc2)CC1` [Ex. 1-106], the IC50 was below 10 nM.
As for `Cn1c(-c2ccc(Cl)cc2Cl)nnc1C1(c2ccc(F)cc2)CC1` [Ex. 1-107], the IC50 is below 10 nM.
To `Cn1c(-c2ccc(N3CCC(CO)CC3)cc2Cl)nnc1C1(c2ccccc2)CC1` [Ex. 1-108] belongs below 10 nM; to `Cn1c(-c2ccc(N3CCC(C(N)=O)CC3)cc2Cl)nnc1C1(c2ccccc2)CC1` [Ex. 1-109], below 10 nM.
To `COCCNC(=O)C1CCN(c2ccc(-c3nnc(C4(c5ccccc5)CC4)n3C)c(Cl)c2)CC1` [Ex. 1-110] belongs below 10 nM; to `Cn1c(C2(c3ccccc3)CC2)nnc1[C@H]1CC[C@H](C(=O)O)CC1` [Ex. 1-111], 10 to 1000 nM.
Take `Cn1c(C2(c3ccccc3)CC2)nnc1[C@H]1CC[C@H](C(N)=O)CC1` [Ex. 1-112]: the IC50 was below 10 nM.
Turning to `Cn1c(-c2ccc(N3CCC(C(=O)N4CCCCC4)CC3)cc2Cl)nnc1C1(c2ccccc2)CC1` [Ex. 1-113], the IC50 is below 10 nM.
In the case of `Cn1c(-c2ccc(N3CCC(C(=O)N4CCOCC4)CC3)cc2Cl)nnc1C1(c2ccccc2)CC1` [Ex. 1-114] it was below 10 nM.
To `CN(C)C(=O)C1CCN(c2ccc(-c3nnc(C4(c5ccccc5)CC4)n3C)c(Cl)c2)CC1` [Ex. 1-115] belongs below 10 nM; to `Cn1c(-c2ccc(N3CCC(C(=O)NCC(F)(F)F)CC3)cc2Cl)nnc1C1(c2ccccc2)CC1` [Ex. 1-116], below 10 nM.
On to `CONC(=O)Nc1ccc(-c2nnc(C3(c4ccccc4)CC3)n2C)c(Cl)c1` [Ex. 1-117], for which the IC50 is below 10 nM.
As for `Cn1c(-c2ccc(N3CCOC3=O)cc2Cl)nnc1C1(c2ccc(F)cc2)CC1` [Ex. 1-118], the IC50 was below 10 nM.
Take `Cn1c(-c2ccc(OCCO)cc2Cl)nnc1C1(c2ccccc2)CC1` [Ex. 1-119]: the IC50 is below 10 nM.
In the case of `Cn1c(-c2ccc(NCCO)cc2Cl)nnc1C1(c2ccc(F)cc2)CC1` [Ex. 1-120] it was below 10 nM; in that of `Cn1c(C2(c3ccccc3)CC2)nnc1C1(c2ccccc2)CC1` [Ex. 1-121], below 10 nM.
In the case of `Cn1c(-c2cc(Cl)ccc2Cl)nnc1C1(c2ccc(F)cc2)CC1` [Ex. 1-122] it was below 10 nM; in that of `Cn1c(-c2ccc(Cl)cc2Cl)nnc1C1(c2ccc(F)cc2)CCCC1` [Ex. 1-123], below 10 nM.
In the case of `COc1cc(C(=O)O)ccc1-c1nnc(C2(c3ccccc3)CC2)n1C` [Ex. 1-124] it was 10 to 1000 nM; in that of `COc1cc(C(N)=O)ccc1-c1nnc(C2(c3ccccc3)CC2)n1C` [Ex. 1-125], below 10 nM.
With `Cn1c(-c2ccc(C(=O)O)cc2Cl)nnc1C1(c2ccc(F)cc2)CC1` [Ex. 1-126], the IC50 was in the range of 10 to 1000 nM.
To `Cn1c(-c2ccc(C(N)=O)cc2Cl)nnc1C1(c2ccc(F)cc2)CC1` [Ex. 1-127] belongs below 10 nM.
Take `Cn1c(-c2ccc(OCC(F)(F)F)cc2Cl)nnc1C1(c2ccccc2)CC1` [Ex. 1-129]: the half-maximal inhibitory concentration (IC50) is below 10 nM.
To `Cn1c(-c2ccc(OCCN)cc2Cl)nnc1C1(c2ccccc2)CC1` [Ex. 1-130] belongs 10 to 1000 nM; to `Cn1c(-c2ccc(N3CCC(O)C3)cc2Cl)nnc1C1(c2ccccc2)CC1` (stereo not shown) [Ex. 1-131], below 10 nM.
To `CC(C)n1c(-c2ccc(C(N)=O)cc2)nnc1C1(c2ccccc2)CC1` [Ex. 1-132] belongs below 10 nM.
In the case of `Cn1c(-c2ccccc2Cl)nnc1C1(c2ccc(F)cc2)CC1` [Ex. 1-134] it was below 10 nM.
With `CN(O)C(=O)Nc1ccc(-c2nnc(C3(c4ccccc4)CC3)n2C)c(Cl)c1` [Ex. 1-137], the IC50 is below 10 nM.
To `Cn1c(-c2ccc(C(N)=O)cc2Cl)nnc1C1(c2cccs2)CC1` [Ex. 1-144] belongs below 10 nM; to `CC(C)n1c(-c2ccc(C(N)=O)cc2)nnc1C1(c2ccc(F)cc2)CC1` [Ex. 1-145], below 10 nM.
To `CC(C)n1c(-c2ccc(N3CCOC3=O)cc2)nnc1C1(c2ccc(F)cc2)CC1` [Ex. 1-149] belongs below 10 nM; to `COC(=O)Nc1ccc(Cl)c(-c2nnc(C3(c4ccc(F)cc4)CC3)n2C)c1` [Ex. 1-150], below 10 nM; to `CONC(=O)Nc1ccc(-c2nnc(C3(c4ccc(F)cc4)CC3)n2C)c(Cl)c1` [Ex. 1-152], below 10 nM.
To `CONC(=O)Nc1ccc(-c2nnc(C3(c4ccc(F)cc4)CC3)n2C(C)C)cc1` [Ex. 1-153] belongs below 10 nM.
As to `CC(C)n1c(-c2cccc(N3CCOC3=O)c2)nnc1C1(c2ccc(F)cc2)CC1` [Ex. 1-154], the IC50 was below 10 nM.
Take `CCn1c(-c2ccc(C(N)=O)cc2Cl)nnc1C1(c2ccccc2)CC1` [Ex. 1-158]: the IC50 is below 10 nM.
Turning to `CCn1c(-c2ccc(C(N)=O)cc2Cl)nnc1C1(c2ccc(F)cc2)CC1` [Ex. 1-159], the IC50 was below 10 nM.
Regarding `CC(C)n1c(-c2cccc(C(N)=O)c2)nnc1C1(c2ccccc2)CC1` [Ex. 1-160], the IC50 was below 10 nM.
In the case of `CC(C)n1c(-c2cccc(C(N)=O)c2)nnc1C1(c2ccc(F)cc2)CC1` [Ex. 1-161], the IC50 was below 10 nM.
In the case of `Cn1c(N2CCC(c3ccccc3)CC2)nnc1C1(c2ccccc2)CC1` [Ex. 2-1, 1-[4-methyl-5-(1-phenylcyclopropyl)-4H-[1,2,4]triazol-3-yl]-4-phenylpiperidine] it was below 10 nM.
